Results taken from US20140017336A1, “CO-ADMINISTRATION OF ARSENIC COMPOUNDS AND ANTI-HERPES VIRUS ANTI-VIRALS” (priority 2011, published 2014).
“Also recorded” adds a separate entry of the source.

Key:
EBV BMRF1 mRNA = type: cell-based, Epstein-Barr virus; conditions: within 72 hours, qRT-PCR
EBV Zta mRNA = type: cell-based, Epstein-Barr virus; conditions: 72 hours, qRT-PCR
EBNA Cp mRNA = EBNA Cp mRNA expression in LCL<EBV1-13> cells; type: cell-based, Epstein-Barr virus; conditions: three days, 10 nM ATO
Description: FIGS. 8A-D. B-cells recently isolated from a patient were infected with EBV, allowed to grow out for several generations (only the EBV-infected cells would be able to grow out), and frozen until use. FIGS. 8A and B. FIGS. 8A and B graph the relative percent of viability of EBV-infected B-cells as just described (LCL<EBV1-13> cells) thawed and grown in one of: media alone (“control”), media and 45 μM ganciclovir (GCV), media and […] arsenic trioxide (ATO), or media and a combination of these concentrations of GCV and ATO. The bars show the relative viability of cells after 2 days of this treatment (“2 D,” FIG. 8A), and at three days (“3 D,” FIG. 8B). FIG. 8C. Epstein-Barr nuclear antigen (“EBNA”) driven by the C promoter (“Cp”) is transcribed only during the latent phase of the virus. FIG. 8C graphs the relative expression of EBNA Cp mRNA of LCL<EBV1-13> cells grown three days (“3 D”) in media alone (“control”), media and 45 μM ganciclovir (GCV), media and 10 nM arsenic trioxide (ATO), or media and a combination of these concentrations of GCV and ATO. […] FIG. 8D. FIG. 8D graphs the relative transcription of the viral immediate early protein Zta mRNA of LCL<EBV1-13> cells grown three days (“3 D”) in media alone (“control”), media and 45 μM ganciclovir (GCV), media and 10 nM arsenic trioxide (ATO), or media and a combination of these concentrations of GCV and ATO. […]

PML NB [1] = target: T1, PML NB (Homo sapiens, UniProt P29590); type: cell-based
T1 construct: CNE1 cells were infected with the BX-1 strain of EBV and PML-NBs were imaged by fluorescent microscopy; endogenous in cells; host or cells: CNE1<EBV-BX1> (EBV-infected CNE1) and uninfected parental CNE1
T1 sequence (P29590 1-882): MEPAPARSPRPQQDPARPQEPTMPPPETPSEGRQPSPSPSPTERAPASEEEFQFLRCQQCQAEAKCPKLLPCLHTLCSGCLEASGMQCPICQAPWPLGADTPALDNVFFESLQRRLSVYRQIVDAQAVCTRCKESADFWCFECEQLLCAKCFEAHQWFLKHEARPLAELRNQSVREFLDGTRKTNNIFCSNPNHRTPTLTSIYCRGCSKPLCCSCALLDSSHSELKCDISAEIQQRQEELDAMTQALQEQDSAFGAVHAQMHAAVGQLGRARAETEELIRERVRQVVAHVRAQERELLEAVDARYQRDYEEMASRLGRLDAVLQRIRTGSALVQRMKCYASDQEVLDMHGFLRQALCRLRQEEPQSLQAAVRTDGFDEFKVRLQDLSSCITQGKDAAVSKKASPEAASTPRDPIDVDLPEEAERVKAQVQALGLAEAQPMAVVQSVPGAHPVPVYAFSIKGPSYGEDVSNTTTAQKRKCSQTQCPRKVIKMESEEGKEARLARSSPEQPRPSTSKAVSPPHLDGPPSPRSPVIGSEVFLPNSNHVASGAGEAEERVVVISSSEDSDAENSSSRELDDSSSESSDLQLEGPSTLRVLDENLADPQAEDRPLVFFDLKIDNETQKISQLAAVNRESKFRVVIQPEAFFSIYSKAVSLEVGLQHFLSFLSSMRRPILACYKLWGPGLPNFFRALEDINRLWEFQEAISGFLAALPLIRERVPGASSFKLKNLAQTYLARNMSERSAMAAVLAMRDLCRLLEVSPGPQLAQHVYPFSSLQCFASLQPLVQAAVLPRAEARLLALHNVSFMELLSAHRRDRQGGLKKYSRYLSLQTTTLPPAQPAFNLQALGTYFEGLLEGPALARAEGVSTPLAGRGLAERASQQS

EBV Zta = experiment: Western blot of Zta in EBV-negative MUTU cells; type: cell-based, Epstein-Barr virus; conditions: 0, 10 nM, 100 nM ATO, day 3
[2] = test system: MUTU1<DNE1> cells (EBV-negative); experiment: Viable cell count (trypan blue exclusion), MUTU1<DNE1> cells; type: cell-based, human; conditions: 10 nM or 100 nM ATO, 2 and 3 days
PML NB [3] = type: cell-based, human; conditions: 24 hours
[4] = dosage of ATO approved for relapsed or refractory acute promyelocytic leukemia (Fox et al., 2008); cited from earlier work
LCL<EBV1-13> cells = type: cell-based, human; conditions: 45 μM GCV, 1.0 nM ATO

## arsenic trioxide [ATO]
EBV BMRF1 mRNA
  ATO dose inducing BMRF1 mRNA: ≥ 12.5 nM
EBV Zta mRNA
  ATO concentration inducing an increase in Zta mRNA: ≥ 12.5 nM
EBNA Cp mRNA
  relative expression of EBNA Cp mRNA: drops dramatically
PML NB [1]; 1.0 nM ATO
  PML NB immunofluorescence signal: below that of baseline untreated uninfected cells
PML NB [1]; EBV positive CNE1 cells
  ATO concentration sufficient to disrupt PML NBs: 1 nM
  PML NB immunofluorescence intensity, dose response: diminished by exposure to ATO in a dose dependent manner
EBV Zta
  Zta expression (Western blot), EBV-negative MUTU cells: absent; also recorded: no Zta expression
[2]
  viable cells, EBV-negative MUTU cells: No effect
PML NB [3]; 12.5 nM ATO
  PML NB immunofluorescence signal: complete loss; also recorded: below that of baseline untreated uninfected cells
PML NB [3]; EBV infected A549 cells, 'as low as'
  ATO concentration resulting in reduction of PML NB size, number and fluorescent intensity: 6.25 nM
PML NB [3]; varying doses of ATO
  PML NB immunofluorescence intensity, dose response: diminished by exposure to ATO in a dose dependent manner
[4]
  peak serum arsenic level: ~400 nM
LCL<EBV1-13> cells
  viable cells after a third day of treatment compared with two days: barely changed
